Here are results for one substance from patent US20070155661A1, “Methods and compositions for modulating the development of stem cells” (THE BOARD of TRUSTEES of the LELAND STANDORD JUNIOR …, priority 2003, published 2007).

The test system of this assay is mouse ES cell-derived IPCCs. The assay is described as follows: Insulin production by mouse ES cell-derived insulin-producing cell clusters (IPCCs). It is filed as cell-based. As to the method: In duplicate experiments, we detect approximately 6000 ng insulin/mg protein produced by mouse embryoid bodies treated with a sequence of growth factors including GDF8.

For the substance “GDF8: BMP/TGF-beta family growth factor, ~80% identical to GDF11 in the mature region”, the “effect on insulin production” value (mouse ES cell-derived IPCCs) was “promotes insulin production”. Further, under “mouse embryoid bodies treated with a sequence of growth factors including GDF8, duplicate experiments”, the “insulin produced by mouse embryoid bodies” value was “approximately 6000 ng insulin/mg protein”.
